{
  "source": "patent US5807845A",
  "about": "“Therapeutic drug for acne vulgaris” (Senju Pharmaceutical Co., Ltd., priority 1996, dated 1998)",
  "key": {"[1]": {"system": "Propionibacterium acnes (P. acnes)", "experiment": "Minimal growth inhibitory concentration (MIC) against Propionibacterium acnes", "type": "cell-based, Propionibacterium acnes (clinically isolated strain)", "details": "for MIC: Cutibacterium acnes", "description": "The minimal growth inhibitory concentration (MIC) of the present compound against P. acnes, which is a factor in the onset of acne vulgaris and a member of the normal flora of the skin, was determined.\n(1) EPC-K (dissolved in distilled water)\nDoubling dilutions from 10 mg/ml to 1.953125×10^-2 mg/ml in final concentration\n(2) dl-α-tocopherol and L-ascorbic acid (dissolved in a mixed solution which consists of HC-60 (trademark, manufactured by NOF corporation) and propyleneglycol)\nDubling dilutions from 5 mg/ml to 7.8125×10^-2 mg/ml in final concentration\n(3) As control, the mixed solution mentioned above was tested.\nThis test was performed by the method published by Committee for the Study of Methods for MIC Determination in Anaerobic Bacteria.\nA frozen clinically isolated strain of P. acnes was subcultured on GAM agar medium for 3 generations and suspended in saline at about 10^8 cells/ml. This cell suspension and a 100-fold dilution thereof were used as inocula.\nTo molten GAM agar medium was added 1/9 volume of the test solution of a varying concentration and, after thorough mixing, sensitivity assay plates ranging from 10 mg/ml to 1.953125×10^-2 mg/ml in final concentration were prepared (plate pH 6.64-7.10). Using a loopful of the inoculum, each plate was streaked and incubated anaerobically at 37° C. for at least 48 hours. The incubated plate was then observed grossly and the lowest concentration causing a definite inhibition of growth was regarded as the MIC.\nThe inoculum was serially diluted 10-fold down to […] and GAM medium was inoculated with each dilution. After culture, the number of colonies were similarly countered for confirmation of the cell count."}, "[2]": {"system": "auricular sebaceous glands", "experiment": "Inhibitory effect on the increase in hamster auricular sebaceous gland area (testosterone propionate-induced)", "type": "in vivo, Syrian hamster", "details": "0.2%, 20 μl to right auricle twice daily for 2 weeks", "description": "It is known that, in acne vulgaris, the sebaceous gland function of the skin is enhanced by elevation of the androgen level. Therefore, the auricular sebaceous glands were expanded by subcutaneous administration of an androgen to hamsters and the inhibitory effect of the present compound on this enlargement was tested.\nFemale Syrian hamsters purchased from SLC Japan were used at the age of 7 weeks.\n(2) 0.2% L-ascorbyl DL-α-tocopheryl phosphate potassium (abbreviation: EPC-K)\nIn 1 ml of sesame oil was dissolved 80 μg of testosterone propionate and the solution was administered subcutaneously to hamsters every other day for 2 weeks to enlarge auricular sebaceous glands. The test material was applied in a volume of 20 μl to the right auricle twice daily for 2 weeks from the beginning of the test. The normal group was subjected to neither treatment. After 2 weeks, the hamsters were sacrificed. The right auricle was bored with a 9 mm-diameter punch and the sebaceous gland area was measured by the whole mount technique. The data were statistically analyzed by Dunnett's test. The level of significance was p<0.05."}, "Toxicity, LD50 in rat": {"experiment": "Toxicity, LD50 in rat", "details": "in vivo, intravenous"}, "[3]": {"details": "0.15625 mg/ml, 10^6 CFU/ml (Table 3)"}, "[4]": {"details": "0.15625 mg/ml, 10^8 CFU/ml (Table 3)"}, "[5]": {"details": "0.3125 mg/ml, 10^6 CFU/ml (Table 3)"}, "[6]": {"details": "0.3125 mg/ml, 10^8 CFU/ml (Table 3)"}, "[7]": {"details": "0.625 mg/ml, 10^6 CFU/ml (Table 3)"}, "[8]": {"details": "0.625 mg/ml, 10^8 CFU/ml (Table 3)"}, "[9]": {"details": "1.25 mg/ml, 10^6 CFU/ml (Table 3)"}, "[10]": {"details": "1.25 mg/ml, 10^8 CFU/ml (Table 3)"}, "[11]": {"details": "2.5 mg/ml, 10^6 CFU/ml (Table 3)"}, "[12]": {"details": "2.5 mg/ml, 10^8 CFU/ml (Table 3)"}, "[13]": {"details": "5.0 mg/ml, 10^6 CFU/ml (Table 3)"}, "[14]": {"details": "5.0 mg/ml, 10^8 CFU/ml (Table 3)"}, "[15]": {"details": "7.8125 × 10^-2 mg/ml, 10^6 CFU/ml (Table 3)"}, "[16]": {"details": "7.8125 × 10^-2 mg/ml, 10^8 CFU/ml (Table 3)"}, "[17]": {"details": "vitamins in HC-60/propyleneglycol mixed solution, cell counts 10^8 and 10^6 CFU/ml (Table 3), read-out: MIC"}},
  "note": "Read-outs that look alike come from different tables or passages of the source.",
  "data": [
    {"smiles": "Cc1c(C)c2c(c(C)c1O)CCC(C)(CCCC(C)CCCC(C)CCCC(C)C)O2", "note": "(racemic) [dl-α-Tocopherol, dl-α-tocopherol]", "values": [
      {"measurement": "Growth of P. acnes", "setting": "[1]; [3]", "value": "+"},
      {"measurement": "Growth of P. acnes", "setting": "[1]; [4]", "value": "+"},
      {"measurement": "Growth of P. acnes", "setting": "[1]; [5]", "value": "+"},
      {"measurement": "Growth of P. acnes", "setting": "[1]; [6]", "value": "+"},
      {"measurement": "Growth of P. acnes", "setting": "[1]; [7]", "value": "+"},
      {"measurement": "Growth of P. acnes", "setting": "[1]; [8]", "value": "+"},
      {"measurement": "Growth of P. acnes", "setting": "[1]; [9]", "value": "+"},
      {"measurement": "Growth of P. acnes", "setting": "[1]; [10]", "value": "+"},
      {"measurement": "Growth of P. acnes", "setting": "[1]; [11]", "value": "+"},
      {"measurement": "Growth of P. acnes", "setting": "[1]; [12]", "value": "+"},
      {"measurement": "Growth of P. acnes", "setting": "[1]; [13]", "value": "+"},
      {"measurement": "Growth of P. acnes", "setting": "[1]; [14]", "value": "+"},
      {"measurement": "Growth of P. acnes", "setting": "[1]; [15]", "value": "+"},
      {"measurement": "Growth of P. acnes", "setting": "[1]; [16]", "value": "+"},
      {"measurement": "MIC", "setting": "[1]; [17]", "value": "≥ 5000", "unit": "µg/mL"}
    ]},
    {"smiles": "Cc1c(C)c2c(c(C)c1OP(=O)(O)OC1=C(O)[C@@H]([C@@H](O)CO)OC1=O)CCC(C)(CCCC(C)CCCC(C)CCCC(C)C)O2", "note": "(mixture of isomers) [EPC-K, L-ascorbyl DL-α-tocopheryl phosphate potassium]", "values": [
      {"measurement": "Growth of P. acnes", "setting": "[1]; 0.15625 mg/ml, 10^6 CFU/ml (Table 2)", "value": "+"},
      {"measurement": "Growth of P. acnes", "setting": "[1]; 0.15625 mg/ml, 10^8 CFU/ml (Table 2)", "value": "+"},
      {"measurement": "Growth of P. acnes", "setting": "[1]; 0.3125 mg/ml, 10^6 CFU/ml (Table 2)", "value": "-"},
      {"measurement": "Growth of P. acnes", "setting": "[1]; 0.3125 mg/ml, 10^8 CFU/ml (Table 2)", "value": "+"},
      {"measurement": "Growth of P. acnes", "setting": "[1]; 0.625 mg/ml, 10^6 CFU/ml (Table 2)", "value": "-"},
      {"measurement": "Growth of P. acnes", "setting": "[1]; 0.625 mg/ml, 10^8 CFU/ml (Table 2)", "value": "-"},
      {"measurement": "Growth of P. acnes", "setting": "[1]; 1.25 mg/ml, 10^6 CFU/ml (Table 2)", "value": "-"},
      {"measurement": "Growth of P. acnes", "setting": "[1]; 1.25 mg/ml, 10^8 CFU/ml (Table 2)", "value": "-"},
      {"measurement": "Growth of P. acnes", "setting": "[1]; 2.5 mg/ml, 10^6 CFU/ml (Table 2)", "value": "-"},
      {"measurement": "Growth of P. acnes", "setting": "[1]; 2.5 mg/ml, 10^8 CFU/ml (Table 2)", "value": "-"},
      {"measurement": "Growth of P. acnes", "setting": "[1]; 5.0 mg/ml, 10^6 CFU/ml (Table 2)", "value": "-"},
      {"measurement": "Growth of P. acnes", "setting": "[1]; 5.0 mg/ml, 10^8 CFU/ml (Table 2)", "value": "-"},
      {"measurement": "Growth of P. acnes", "setting": "[1]; 10.0 mg/ml, 10^6 CFU/ml (Table 2)", "value": "-"},
      {"measurement": "Growth of P. acnes", "setting": "[1]; 10.0 mg/ml, 10^8 CFU/ml (Table 2)", "value": "-"},
      {"measurement": "Growth of P. acnes", "setting": "[1]; 1.953125 × 10^-2 mg/ml, 10^6 CFU/ml (Table 2)", "value": "+"},
      {"measurement": "Growth of P. acnes", "setting": "[1]; 1.953125 × 10^-2 mg/ml, 10^8 CFU/ml (Table 2)", "value": "+"},
      {"measurement": "Growth of P. acnes", "setting": "[1]; 3.90625 × 10^-2 mg/ml, 10^6 CFU/ml (Table 2)", "value": "+"},
      {"measurement": "Growth of P. acnes", "setting": "[1]; 3.90625 × 10^-2 mg/ml, 10^8 CFU/ml (Table 2)", "value": "+"},
      {"measurement": "Growth of P. acnes", "setting": "[1]; 7.8125 × 10^-2 mg/ml, 10^6 CFU/ml (Table 2)", "value": "+"},
      {"measurement": "Growth of P. acnes", "setting": "[1]; 7.8125 × 10^-2 mg/ml, 10^8 CFU/ml (Table 2)", "value": "+"},
      {"measurement": "MIC", "setting": "[1]; cell count 10^6 /ml, EPC-K dissolved in distilled water", "value": 312, "unit": "µg/mL"},
      {"measurement": "MIC", "setting": "[1]; cell count 10^8 /ml, EPC-K dissolved in distilled water", "value": 625, "unit": "µg/mL"},
      {"measurement": "Area (auricular sebaceous gland area)", "setting": "[2]; mean ± standard deviation (n = 7-8), p < 0.01 vs. methanol control", "value": "3327 ± 225", "unit": "μm^2"},
      {"measurement": "% Inhibition of the increase in auricular sebaceous gland area", "setting": "[2]; vs. methanol control", "value": 72.5, "unit": "%"},
      {"measurement": "LD50", "setting": "Toxicity, LD50 in rat", "value": "≥ 100", "unit": "mg/kg"}
    ]},
    {"smiles": "O=C1O[C@H]([C@@H](O)CO)C(O)=C1O", "note": "[L-Ascorbic acid, L-ascorbic acid]", "values": [
      {"measurement": "Growth of P. acnes", "setting": "[1]; [3]", "value": "+"},
      {"measurement": "Growth of P. acnes", "setting": "[1]; [4]", "value": "+"},
      {"measurement": "Growth of P. acnes", "setting": "[1]; [5]", "value": "+"},
      {"measurement": "Growth of P. acnes", "setting": "[1]; [6]", "value": "+"},
      {"measurement": "Growth of P. acnes", "setting": "[1]; [7]", "value": "+"},
      {"measurement": "Growth of P. acnes", "setting": "[1]; [8]", "value": "+"},
      {"measurement": "Growth of P. acnes", "setting": "[1]; [9]", "value": "+"},
      {"measurement": "Growth of P. acnes", "setting": "[1]; [10]", "value": "+"},
      {"measurement": "Growth of P. acnes", "setting": "[1]; [11]", "value": "+"},
      {"measurement": "Growth of P. acnes", "setting": "[1]; [12]", "value": "+"},
      {"measurement": "Growth of P. acnes", "setting": "[1]; [13]", "value": "+"},
      {"measurement": "Growth of P. acnes", "setting": "[1]; [14]", "value": "+"},
      {"measurement": "Growth of P. acnes", "setting": "[1]; [15]", "value": "+"},
      {"measurement": "Growth of P. acnes", "setting": "[1]; [16]", "value": "+"},
      {"measurement": "MIC", "setting": "[1]; [17]", "value": "≥ 5000", "unit": "µg/mL"}
    ]}
  ]
}
